Measurements: patent US20190166835A1, “Fungal Trisaccharide Ester Compounds and Use Thereof in Preparing Agents for Preventing and Controlling Plant Fungal Diseases” (SOUTH CHINA BOTANICAL GARDEN, CHINESE ACADEMY OF SCIENCES, priority 2017, published 2019)

Key:
Curvularia lunata = assay: agar diffusion test, in vitro inhibitory activity; assay type: cell-based; details: 500 μg per 6 mm filter paper, PDA, 28° C., 72 or 96 hours
Excerpt: (§1) Experiment of in vitro inhibitory activities of the trisaccharide ester compounds 1 to 5 obtained in embodiment 2 against common plant pathogenic fungi of twelve genus.
(§2) The fungi used in the experiments include: 1) Alternaria solani (causing early blight of tomatoes), 2) Botryospuaeria berengeriana (causing ring rot of apples), 3) Botrytis cinerea (causing grey mould of tomatoes), 4) Colletotrichum gloeosporioides (causing anthracnose of mangos), 5) Curvularia lunata (which will infect bananas), 6) Fusarium oxysporium (causing fusarium wilt of bananas and watermelons), 7) Geotrichum citri-aurantii (causing sour rot of citrus), 8) Helminthosporium maydis (causing southern corn leaf blight), 9) Penicillium italicum (causing blue mould of citrus), 10) Peronophythora litchii (which will infect litchi), 11) Rhizoctonia solani (causing sheath blight of rice), and 12) Ustilaginoidea virens (causing false smut of rice).
(§3) The antifungal activities of the compounds 1 to 5 were determined by the agar diffusion test. The fungi were activated and respectively seeded onto petri dishes containing PDA solid culture medium, and spread uniformly with T-shaped spreaders. Each compound was dissolved in methanol to give a 50 mg/mL solution. 10 μL of the solution was then added dropwise onto a filter paper (with a diameter of 6 mm) and let dry in the clean bench such that each filter paper contained 500 μg of the compound eventually. The filter papers were then pressed to the pertri dishes mentioned above and left to incubate in dark at 28° C. for 72 or 96 hours, and then the inhibition widths were measured (a inhibition width refers to an average diameter of the zones of inhibition), wherein filter papers containing a same volume of methanol were used as negative controls.

[1] = tested on: Botryospuaeria berengeriana; assay: agar diffusion test, in vitro inhibitory activity; assay type: cell-based; details: 500 μg per 6 mm filter paper, PDA, 28° C., 72 or 96 hours
Excerpt: as §1, §2, §3

Penicillium italicum = assay: agar diffusion test, in vitro inhibitory activity; assay type: cell-based; details: 500 μg per 6 mm filter paper, PDA, 28° C., 72 or 96 hours
Excerpt: as §1, §2, §3

Rhizoctonia solani = assay: agar diffusion test, in vitro inhibitory activity; assay type: cell-based; details: 500 μg per 6 mm filter paper, PDA, 28° C., 72 or 96 hours
Excerpt: as §1, §2, §3

[2] = tested on: Colletotrichum gloeosporioides; assay: agar diffusion test, in vitro inhibitory activity; assay type: cell-based; details: 500 μg per 6 mm filter paper, PDA, 28° C., 72 or 96 hours
Excerpt: as §1, §2, §3

Peronophythora litchii = assay: agar diffusion test, in vitro inhibitory activity; assay type: cell-based; details: 500 μg per 6 mm filter paper, PDA, 28° C., 72 or 96 hours
Excerpt: as §1, §2, §3

Ustilaginoidea virens = assay: agar diffusion test, in vitro inhibitory activity; assay type: cell-based; details: 500 μg per 6 mm filter paper, PDA, 28° C., 72 or 96 hours
Excerpt: as §1, §2, §3

[3] = tested on: Geotrichum citri-aurantii; assay: agar diffusion test, in vitro inhibitory activity; assay type: cell-based; details: 500 μg per 6 mm filter paper, PDA, 28° C., 72 or 96 hours
Excerpt: as §1, §2, §3

Alternaria solani = assay: agar diffusion test, in vitro inhibitory activity; assay type: cell-based; details: 500 μg per 6 mm filter paper, PDA, 28° C., 72 or 96 hours
Excerpt: as §1, §2, §3

Helminthosporium maydis = assay: agar diffusion test, in vitro inhibitory activity; assay type: cell-based; details: 500 μg per 6 mm filter paper, PDA, 28° C., 72 or 96 hours
Excerpt: as §1, §2, §3

Botrytis cinerea = assay: agar diffusion test, in vitro inhibitory activity; assay type: cell-based; details: 500 μg per 6 mm filter paper, PDA, 28° C., 72 or 96 hours
Excerpt: as §1, §2, §3

Fusarium oxysporium = assay: agar diffusion test, in vitro inhibitory activity; assay type: cell-based; details: 500 μg per 6 mm filter paper, PDA, 28° C., 72 or 96 hours
Excerpt: as §1, §2, §3

[4] = tested on: pathogenic fungi in the postharvest storage of citrus fruits; assay: preservation of citrus in postharvest storage (infection index); assay type: in vivo, citrus reticulata blanco cv.shiyueju; details: soaked 5 minutes, stored at 25° C. for 15 days
Method: Experiment of the trisaccharide ester extract obtained in embodiment 2 in the preservation of citrus in postharvest storage Samples for the experiment: the trisaccharide ester extract (containing the compounds 1 to 4, with a mass ratio of about 60:35:4:1) obtained in embodiment 2 was dissolved in a small volume of ethanol and diluted with water to give treating solutions (200, 400 and 600 mg/L). The citrus fruits were soaked in the treating solutions for 5 minutes and left to dry. The fruits were then put in plastic baskets (the plastic baskets were surface-sterilized with 75% ethanol and left to dry in advance), sealed in polyethylene bags with a thickness of 0.02 mm, and stored at 25° C. for 15 days. The fruits were observed and their infection indexes were recorded. Calculation of the infection index: infection index=Σ(infection level×amount of fruits of the level)/([…]×total amount of fruits)×100%; infection level: 0 refers to “no obvious infection”, 1 refers to “slight infection”, 2 refers to “infection area smaller than or equal to ¼ of fruit surface”; 3 refers to “infection area larger than ¼ and smaller than ½ of fruit surface”, and 4 refers to “infection area larger than or equal to ½ of fruit surface”. Three replicates were set for each treating solution, and 60 fruits for each replicate. Fruits for the experiments: citrus reticulata blanco cv.shiyueju, harvested from Conghua Orchard.

SMILES: CCC(C)CCCCCCC(=O)O[C@@H]1C(CO[C@H]2OC(CO)[C@H](O)C(O)C2O)O[C@H](O[C@H]2OC(COC(C)=O)[C@@H](O)C(O)C2O)C(OC(=O)CCC(C)CC)C1OC(=O)C(C)CC (single isomer, unassigned) [Compound 5, 6-O-β-L-mannosyl-3-O-(2-methylbutyryl)-4-O-(8-methyldecanoyl)-2-O-(4-methylhexanoyl)-6′-O-acetyltrehalose]
- Zone of inhibition (Curvularia lunata): 16 mm
- Zone of inhibition [1]: 8 mm
- Zone of inhibition (Penicillium italicum): 14 mm
- Zone of inhibition (Rhizoctonia solani): 12 mm
- Zone of inhibition [2]: 8 mm
- Zone of inhibition (Peronophythora litchii): 10 mm
- Zone of inhibition (Ustilaginoidea virens): 16 mm
- Zone of inhibition [3]: 15 mm
- Zone of inhibition (Alternaria solani): 10 mm
- Zone of inhibition (Helminthosporium maydis): 18 mm
- Zone of inhibition (Botrytis cinerea): 9 mm
- Zone of inhibition (Fusarium oxysporium): 8 mm

SMILES: CCC(C)CCCCCCC(=O)O[C@@H]1C(CO[C@H]2OC(CO)[C@H](O)[C@H](O)C2O)O[C@H](O[C@H]2OC(CO)[C@@H](O)[C@H](O)C2O)C(OC(=O)CCC(C)CC)[C@H]1OC(=O)C(C)CC (stereo partly drawn) [Compound 1, 6-O-β-L-mannosyl-3-O-(2-methylbutyryl)-4-O-(8-methyldecanoyl)-2-O-(4-methylhexanoyl)trehalose]
- Zone of inhibition (Curvularia lunata): 12 mm
- Zone of inhibition [1]: 16 mm
- Zone of inhibition (Penicillium italicum): 20 mm
- Zone of inhibition (Rhizoctonia solani): 18 mm
- Zone of inhibition [2]: 12 mm
- Zone of inhibition (Peronophythora litchii): 13 mm
- Zone of inhibition (Ustilaginoidea virens): 22 mm
- Zone of inhibition [3]: 17 mm
- Zone of inhibition (Alternaria solani): 12 mm
- Zone of inhibition (Helminthosporium maydis): 22 mm
- Zone of inhibition (Botrytis cinerea): 15 mm
- Zone of inhibition (Fusarium oxysporium): 10 mm

SMILES: CCCCCCCCCC(=O)O[C@@H]1C(CO[C@H]2OC(CO)[C@H](O)[C@H](O)C2O)O[C@H](O[C@H]2OC(CO)[C@@H](O)[C@H](O)C2O)C(OC(=O)CCC(C)CC)[C@H]1OC(=O)C(C)CC (stereo partly drawn) [Compound 2, 4-O-decanoyl-6-O-β-L-mannosyl-3-O-(2-methylbutyryl)-2-O-(4-methylhexanoyl)trehalose]
- Zone of inhibition (Curvularia lunata): 15 mm
- Zone of inhibition [1]: 14 mm
- Zone of inhibition (Penicillium italicum): 22 mm
- Zone of inhibition (Rhizoctonia solani): 16 mm
- Zone of inhibition [2]: 10 mm
- Zone of inhibition (Peronophythora litchii): 12 mm
- Zone of inhibition (Ustilaginoidea virens): 20 mm
- Zone of inhibition [3]: 15 mm
- Zone of inhibition (Alternaria solani): 14 mm
- Zone of inhibition (Helminthosporium maydis): 18 mm
- Zone of inhibition (Botrytis cinerea): 14 mm
- Zone of inhibition (Fusarium oxysporium): 12 mm

SMILES: CCCCCCCC(=O)O[C@@H]1C(CO[C@H]2OC(CO)[C@H](O)[C@H](O)C2O)O[C@H](O[C@H]2OC(CO)[C@@H](O)[C@H](O)C2O)C(OC(=O)CCC(C)CC)[C@H]1OC(=O)C(C)CC (stereo partly drawn) [Compound 4]
- Zone of inhibition (Curvularia lunata): 15 mm
- Zone of inhibition [1]: 10 mm
- Zone of inhibition (Penicillium italicum): 18 mm
- Zone of inhibition (Rhizoctonia solani): 18 mm
- Zone of inhibition [2]: 14 mm
- Zone of inhibition (Peronophythora litchii): 12 mm
- Zone of inhibition (Ustilaginoidea virens): 20 mm
- Zone of inhibition [3]: 12 mm
- Zone of inhibition (Alternaria solani): 12 mm
- Zone of inhibition (Helminthosporium maydis): 18 mm
- Zone of inhibition (Botrytis cinerea): 10 mm
- Zone of inhibition (Fusarium oxysporium): 10 mm

SMILES: CN(C)C(=S)SSC(=S)N(C)C [Thiram]
- Infection index ([4]; treating solution 200 mg/L): 29.0 ± 1.9%
- Infection index ([4]; treating solution 400 mg/L): 31.4 ± 0.9%
- Infection index ([4]; treating solution 600 mg/L): 29.2 ± 1.0%
